# Experimental data published in patent US5993846A, “Bioadhesive emulsion preparations for enhanced drug delivery” (Pharmos Corporation, priority 1998, dated 1999).
# Test system: blood clotting
# Format: in vivo, Male Sprague Dawley rats
# Experimental: Clotting time of blood droplets obtained by tail […] used to evaluate the systemic effect of LMWH following intracolonic (i.c.) or intravenous (i.v.) treatment of rats. Male Sprague Dawley rats (200-300 g) were used for all of these experiments. Following preliminary studies, experiments were performed between 8:00-13:00 hours in order to reduce diurnal changes in responsiveness to heparins. Rats were anesthetized with 0.3 ml […] (2:1), weighed, and the initial blood clotting time was determined. Each rat was then treated with either Fragmin or control vehicle (i.v. or i.c.). Intravenous treatment was performed by exposing the femoral […] and injecting in the direction of blood flow. Intracolonic treatment was performed by opening the peritoneal cavity at the midline, locating the secum, and injecting into the large intestine, approximately 2 cm from the secum. The time of treatment was considered as T. At the indicated intervals, blood clotting time was determined. The pharmacological activity, denoted PA %, was used to evaluate the relative effect of various routes of administration and dose levels on blood clotting time. PA % was calculated for the individual rats and the values presented are the mean of each group. […] Blood clotting was measured by […] […] The clotting time was measured with a stop watch that was started when the drops were collected.
substance,measurement,setting,value
Low molecular weight heparin [LMWH],"dose-response of blood clotting time and maximal effect, ME %","i.v., groups A-C, FIG. 4",approximately linear dose-response
same,TMAX of blood clotting time,"rat, in vivo",1.5 h
